# Activity calls are given as the source filed them.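 The calls were made as follows: active = more than half of replicate measurements showing over 20% loss of kinase signal relative to plate controls; inconclusive = some but at most half of replicates over 20% loss; inactive = no replicate over 20% signal loss.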
# Target: Glycogen synthase kinase-3 alpha (Homo sapiens) (UniProt P49840)
# Assay: concentration-response blocking of human GSK3A – biochemical, luminescence, cell-free homogeneous, retest, dose response (AID 463203)
# Details: GSK-3 alpha enzyme, ADP-Glo luminescence, 60 min
# Sequence of Glycogen synthase kinase-3 alpha (Homo sapiens) (P49840 whole entry, looked up): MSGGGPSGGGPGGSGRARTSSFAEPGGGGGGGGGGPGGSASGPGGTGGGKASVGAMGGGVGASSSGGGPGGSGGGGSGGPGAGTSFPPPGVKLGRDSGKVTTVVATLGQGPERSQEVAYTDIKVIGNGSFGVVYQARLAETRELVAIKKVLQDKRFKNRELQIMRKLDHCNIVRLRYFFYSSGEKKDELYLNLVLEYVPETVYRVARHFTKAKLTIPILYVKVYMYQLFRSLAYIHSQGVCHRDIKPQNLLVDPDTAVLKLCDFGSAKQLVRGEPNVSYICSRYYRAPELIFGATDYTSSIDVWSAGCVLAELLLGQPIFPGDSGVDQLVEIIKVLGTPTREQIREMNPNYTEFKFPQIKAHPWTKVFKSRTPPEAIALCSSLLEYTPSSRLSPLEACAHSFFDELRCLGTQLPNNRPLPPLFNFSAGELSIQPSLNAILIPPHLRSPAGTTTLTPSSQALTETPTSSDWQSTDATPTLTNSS
row,SMILES,AC50
1,C=CCn1c(O)c(C=NC2CCN(Cc3ccccc3)CC2)c(=O)[nH]c1=O,> 30 µM (inactive)
2,CNC(=O)c1ccc(NC(=O)C2CCN(c3ncnc4sc(C)c(C)c34)CC2)cc1,> 30 µM (inactive)
3,COc1ccccc1NC(=O)c1cc2ccc(O)cc2o/c1=N\O,> 30 µM (inactive)
4,CCCC1=C(C(=O)OCC)C(c2ccc(N(C)C)cc2)n2ncnc2N1 (stereo not drawn),> 30 µM (inactive)
5,CN(C)c1nc2sc3c(c2c(=O)n1C)CC(C)(C)OC3,> 30 µM (inactive)
6,COC(=O)c1ccc(CSc2ccc3nnc(-c4ccc(OC)cc4)n3n2)o1,17.1 µM
7,Cc1cccc(OCC(=O)NNC(=O)c2cc3ccccc3oc2=O)c1,> 30 µM (inactive)
8,Clc1ccc(C2=Nn3c(nnc3-c3cccnc3)SC2)s1,> 30 µM (inactive)
9,O=C(O)COc1c(Cl)cc(/C=C2/NC(=O)NC2=O)cc1Br,23 µM
10,COc1ccc2nc(SCc3nc(N)nc(Nc4ccccc4)n3)[nH]c2c1,12.5 µM
11,O=C(O)CCCNc1ccc([N+](=O)[O-])c(NCCCC(=O)O)n1,> 30 µM (inactive)
12,CCN(CC)CCOc1ccc2c(c1)C(=NNC(=O)c1ccccn1)c1cc(OCCN(CC)CC)ccc1-2,> 30 µM (inactive)
13,N#CC1=C2SCN(Cc3ccco3)CN2C(=O)CC1c1ccc(Cl)cc1 (stereo not drawn),> 30 µM (inactive)
14,COc1cc(/C(C)=N/NC(=O)c2nnn(-c3nonc3N)c2-c2cccs2)ccc1O,1.95 µM
15,COc1cc(/C=N/NC(=O)c2ccncc2)ccc1OCCN1CCCCC1,> 30 µM (inactive)
16,O=C(O)c1cccc2c1C(=O)c1ccc(Cl)cc1S2(=O)=O,> 30 µM (inactive)
17,Cc1c2c(n3c(nc4ccccc43)c1C#N)N(CCN(C)C)CC2,21.7 µM
18,Cc1ccccc1CNC(=O)c1cc(COc2ccc(F)cc2F)on1,> 30 µM (inactive)
19,Cc1cccc(N(C)C(=O)C2CCCN2S(=O)(=O)c2cccc3nsnc23)c1 (stereo not drawn),24.8 µM
20,OCC1OC(n2cnc3c(NCCc4ccccc4)ncnc32)C(O)C1O (stereo not drawn),> 30 µM (inactive)
21,COc1ccccc1NC(=O)c1ccc(C(=O)c2ccccc2)o1,> 30 µM (inactive)
22,CC1=C(C(=O)OCc2ccccc2)C(c2cccc(F)c2)NC(=O)N1 (stereo not drawn),> 30 µM (inactive)
23,CC(=O)OCC1OC(n2ccc(=O)[nH]c2=O)C(O)C1O (stereo not drawn),> 30 µM (inactive)
24,O=C(c1ccc2c3n(nc2c1)-c1ccccc1CO3)N1CCOCC1,18.8 µM
25,CC(C)Cn1nc(NC(=O)C2CCCO2)c2cc3ccccc3nc21 (stereo not drawn),> 30 µM (inactive)
26,Cc1ccnc(NC(=O)CCC(=O)N(CC(=O)NCc2ccccc2)Cc2ccco2)c1,13.4 µM

row,SMILES,AC50
1,CC1=C(C(=O)OCc2ccc3c(c2)OCO3)C(c2ccccc2OCc2ccccc2)NC(=O)N1 (stereo not drawn),> 30 µM (inactive)
2,N#C/C(=N\Nc1ccc(Cl)cc1)C(N)=S,> 30 µM (inactive)
3,CCOC(=O)c1cc(-c2ccc(F)cc2)n(CC(=O)NCc2cccnc2)c1C,> 30 µM (inactive)
4,O=C(c1ccc(Cn2cnnn2)cc1)N1CCCC(Nc2ccc(F)cc2)C1 (stereo not drawn),16.1 µM
5,O=C1NC(=Nc2ccccc2)S/C1=C/c1cccs1,> 30 µM (inactive)
6,O=C1c2cnc3ncnn3c2CC2c3ccccc3CCN12 (stereo not drawn),> 30 µM (inactive)
7,CCOC(=O)c1cccnc1NC(=O)c1ccncc1,> 30 µM (inactive)
8,NCc1cccc(CNc2ccc([N+](=O)[O-])cc2C(N)=O)c1,5.96 µM
9,COCCNC(=O)c1ccc(Cn2c(=S)[nH]c3cc4c(cc3c2=O)OCO4)cc1,> 30 µM (inactive)
10,CC(=O)c1sc(NC(=O)CN2C(=O)NC3(CCCC3)C2=O)nc1-c1ccccc1,20.7 µM
11,COc1ccc(S(=O)(=O)Nc2c(C(=O)O)[nH]c3ccc(OC)cc23)cc1,30.7 µM
12,Fc1ccc(C2=Nn3c(nnc3-c3ccco3)SC2)cc1,> 30 µM (inactive)
13,Cc1noc(C)c1COc1cccc(C(=O)OC(C)C(=O)Nc2c(C)n(C)n(-c3ccccc3)c2=O)c1 (stereo not drawn),> 30 µM (inactive)
14,Cc1c(C(=O)N2CCOCC2)oc2ccc(S(=O)(=O)N3CCCC3)cc12,> 30 µM (inactive)
15,Cc1oc2ccc(O)cc2c1C(=O)c1ccc(Br)cc1,> 30 µM (inactive)
16,CCOC(=O)c1nnn(-c2nonc2N)c1COc1cc(C)c(Cl)c(C)c1,6.9 µM
17,CC1(C)Oc2ccc3ccc(=O)oc3c2-c2cn[nH]c21,7.97 µM
18,Cc1c(C(=O)OC(C)C)[nH]c2c1C(=O)CC(C)(C)C2,> 30 µM (inactive)
19,NC(=O)c1cn(-c2ccccc2)nc1-c1cccnc1,> 30 µM (inactive)
20,CCOC(=O)c1c(NC(=O)CN2C(=O)NC3(CCCCC3C)C2=O)sc(C)c1C (stereo not drawn),> 30 µM (inactive)
21,CCOC(=O)c1cnc2ccc(OCC)cc2c1N1CCN(c2ccccc2OC)CC1,3.95 µM
22,O=C(O)C1CCCC[C@H]1C(=O)Nc1ncc([N+](=O)[O-])s1 (stereo partly drawn),> 30 µM (inactive)
23,CCCc1nnc(NC(=O)CCN2C(=O)c3ccccc3C2=O)s1,> 30 µM (inactive)
24,CCN(C(=O)CN1CCCCCC1)c1c(N)n(Cc2ccccc2)c(=O)[nH]c1=O,> 30 µM (inactive)
25,O=C(NCCc1csc(-c2cccnc2)n1)c1ccc(Br)o1,17.8 µM
26,O=C(c1ccc2c3n(nc2c1)-c1ccc(Cl)cc1CO3)N1CCOCC1,> 30 µM (inactive)

row,SMILES,AC50
1,CN(Cc1c(C(=O)N/N=C/c2ccccc2)nnn1-c1nonc1N)C1CCCCC1,> 30 µM (inactive)
2,COc1cccc(NC(=O)c2cnc[nH]2)c1,> 30 µM (inactive)
3,O=c1[nH]ncn1-c1ccccc1,> 30 µM (inactive)
4,Cc1cc2nc(-c3cccnc3SCC(=O)NC(C)C)[nH]c2cc1C,> 30 µM (inactive)
5,O=C(COc1ccccc1F)NC12CC3CC(CC(C3)C1)C2,> 30 µM (inactive)
6,CCOc1cccc(-c2c(C(=O)N/N=C(\C)c3ccccn3)nnn2-c2nonc2N)c1,2.56 µM
7,c1cncc(-c2nc(NCC3COc4ccccc4O3)c3ccccc3n2)c1 (stereo not drawn),22.9 µM
8,O=c1cc(-c2ccccc2)[nH]n1-c1ccc([N+](=O)[O-])cc1,> 30 µM (inactive)
9,c1ccc(CN2CCN(CCCNc3ccc4nnc(-c5ccccc5)n4n3)CC2)cc1,> 30 µM (inactive)
10,COc1ccc(NC(=O)Nc2ccccc2F)c(C)c1,> 30 µM (inactive)
11,CCSc1nc2sc3c(c2c(=O)n1CC)CC(C)(C)OC3,> 30 µM (inactive)
12,NC1=NC(=O)/C(=C/c2cccs2)S1,> 30 µM (inactive)
13,COc1ccc(C2CC(=O)N3CN(c4ccccc4F)CSC3=C2C#N)cc1OC (stereo not drawn),> 30 µM (inactive)
14,N#Cc1ccccc1Cn1cc(/C=N/Nc2ccc([N+](=O)[O-])cn2)c2ccccc21,> 30 µM (inactive)
15,Cn1c(=O)c2c(-c3ccccc3)n(Cc3ccccn3)cc2n(C)c1=O,> 30 µM (inactive)
16,Cc1ccc(S(=O)(=O)Nc2cccc3ncccc23)cc1,> 30 µM (inactive)
17,CCCCOC(=O)C1=C(C)Nc2ncnn2C1c1ccc(OC)c(OC)c1OC (stereo not drawn),12.4 µM
18,O=C(Nc1ncc([N+](=O)[O-])s1)C1CC(=O)N(c2ccc(F)cc2)C1 (stereo not drawn),12.4 µM
19,CN(Cc1c(C(=O)N/N=C/c2ccc(F)cc2)nnn1-c1nonc1N)C1CCCCC1,> 30 µM (inactive)
20,CCOC(=O)c1[nH]c2c(c1-c1ccccc1)C(=O)CC(c1ccc(OCC)cc1)C2 (stereo not drawn),> 30 µM (inactive)
21,CCNc1nc(NCC)nc(C(=O)OCCO)n1,> 30 µM (inactive)
22,COc1ccc(NC(=O)CSc2nc3[nH]ncc3c(=O)n2-c2ccccc2OC)cc1OC,> 30 µM (inactive)
23,NS(=O)(=O)c1ccc(NC(=O)CSc2nnc(-c3ccc(O)cc3)o2)cc1,4.93 µM
24,CCOc1ccc(-c2c(C(=O)N/N=C(\C)c3cccnc3)nnn2-c2nonc2N)cc1,> 30 µM (inactive)
25,O=S(=O)(O)c1ccc(N=Nc2ccccc2)cc1,> 30 µM (inactive)
26,CCCC1=C(C(=O)OCC)C(c2ccc(O)cc2)n2ncnc2N1 (stereo not drawn),11.2 µM

row,SMILES,AC50
1,Fc1ccccc1CSc1nnc(-c2cccnc2)o1,> 30 µM (inactive)
2,CC1(c2ccccc2)CC(C)(C)N2C(=O)/C(=C3\SC(=S)NC3=O)c3cccc1c32 (stereo not drawn),> 30 µM (inactive)
3,COc1cccc(-c2nc(-c3ccccc3)[nH]c(=O)c2C#N)c1,> 30 µM (inactive)
4,Cc1ccc(C(=O)Nc2nnc(C)s2)cc1,> 30 µM (inactive)
5,c1ccc(-c2nc3ccccc3[nH]2)cc1,> 30 µM (inactive)
6,N#CCCn1cc(/C=N/O)c(-c2ccccc2)n1,> 30 µM (inactive)
7,COc1cc2c(cc1OC)-c1nnc(C)n1C1(CCCC1)C2,30.2 µM
8,CCOc1ccc2ccccc2c1/C=N/n1cncn1,> 30 µM (inactive)
9,CCOc1ccc(-c2ncncc2-c2ccc(OC)cc2)c(O)c1,> 30 µM (inactive)
10,COc1cc(-c2[nH]nc3c2C(c2ccoc2)C(C#N)=C(N)O3)cc(OC)c1OC (stereo not drawn),26.1 µM
11,CCOc1ccc(NC(=O)N(C2CCCCC2)C(C)c2cccnc2)cc1 (stereo not drawn),> 30 µM (inactive)
12,CCOc1ccc(Cn2nnc(C(=O)Nc3ccc(OC)cc3OC)c2N)cc1,> 30 µM (inactive)
13,CCOC(=O)c1sc(NC(=O)CN2C(=O)NC3(CCC(C)CC3)C2=O)c(C(=O)OCC)c1C (stereo not drawn),> 30 µM (inactive)
14,O=C(Nc1ccccc1-c1nnc(SCc2ccc(Cl)cc2Cl)o1)c1ccccc1,> 30 µM (inactive)
15,CC(=O)c1cc(-c2ccc(F)cc2)n(CCC(=O)Nc2cccnc2)c1C,> 30 µM (inactive)
16,COc1cc(NC(=O)c2cc([N+](=O)[O-])ccc2NC(=O)CNC2CCCCC2C)cc(OC)c1 (stereo not drawn),> 30 µM (inactive)
17,O=C(Nc1cccc(-c2cnc3ccccc3n2)c1)c1ccco1,> 30 µM (inactive)
18,Cc1ccnc(NC(=O)CCC(=O)N(CC(=O)NCc2ccc(F)cc2)CC2CCCO2)c1 (stereo not drawn),27.9 µM
19,CCc1ccc(/C=N/NC(=O)c2nnn(-c3nonc3N)c2C(C)C)cc1,> 30 µM (inactive)
20,O=C(c1ccco1)N(Cc1ccc([N+](=O)[O-])cc1)c1ccc(Br)cc1,> 30 µM (inactive)
21,O=C(COc1ccccc1Cl)Nc1ccc(Cl)cn1,> 30 µM (inactive)
22,Cc1cc(C)nc(NC(=O)c2ccc(Br)s2)n1,> 30 µM (inactive)
23,COc1ccc(OC)c(C2=Nn3c(nnc3-c3ccncc3)SC2)c1,1.5 µM
24,Cc1ccccc1CSc1nnc(-c2ccncc2)n1C,> 30 µM (inactive)
25,COc1ccc(-n2c(O)c(C=NCCCn3ccnc3)c(=O)[nH]c2=O)cc1,5.43 µM
